Measured values from the supplement of paper PMC10307832.

Experiments:
Experiment in all cases: relative viability (nuclei count vs DMSO), 5 days (fraction); higher = more cells survive
[1] = compound: CC1=CC(=CC=C1)NC2=NC(=CS2)C3=CC=NC=C3 + N=C(N)NC(=N)NCCc1ccccc1 [Phenformin] (partner 250 µM)
Procedure, shortened: (§1)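 Cells from lung cancer lines were seeded into 1536-well plates and, one day later, dosed by pin tool. Treatments were either a single drug or a fixed dose of an anchor drug with five library-drug doses (not always all listed) in √10 steps. After 5 days, nuclei were stained in a one-step fixation (final 0.05% Triton X-100, 1% formaldehyde, 1 ug/ml Hoechst) and counted on 4× images, and relative viability is the treated-to-vehicle nuclei ratio, as the median of duplicate plates.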

Masitinib + Vorinostat = compound: Cc1ccc(NC(=O)c2ccc(CN3CCN(C)CC3)cc2)cc1Nc1nc(-c2cccnc2)cs1 [Masitinib] + O=C(CCCCCCC(=O)Nc1ccccc1)NO [Vorinostat] (partner 1 µM)
Procedure, shortened: as §1

Masitinib + Pictilisib = compound: Cc1ccc(NC(=O)c2ccc(CN3CCN(C)CC3)cc2)cc1Nc1nc(-c2cccnc2)cs1 [Masitinib] + CS(=O)(=O)N1CCN(Cc2cc3nc(-c4cccc5[nH]ncc45)nc(N4CCOCC4)c3s2)CC1 [Pictilisib] (partner 1 µM)
Procedure, shortened: as §1

Masitinib + Trametinib = compound: Cc1ccc(NC(=O)c2ccc(CN3CCN(C)CC3)cc2)cc1Nc1nc(-c2cccnc2)cs1 [Masitinib] + CC(=O)Nc1cccc(-n2c(=O)n(C3CC3)c(=O)c3c(Nc4ccc(I)cc4F)n(C)c(=O)c(C)c32)c1 [Trametinib] (partner 0.02 µM)
Procedure, shortened: as §1

Cell Line | relative viability ([1]; first compound 0.08 µM) | relative viability ([1]; first compound 0.253 µM) | relative viability ([1]; first compound 0.8 µM) | relative viability ([1]; first compound 2.53 µM) | relative viability ([1]; first compound 8 µM) | relative viability (Masitinib + Vorinostat; first compound 0.01 µM) | relative viability (Masitinib + Vorinostat; first compound 0.03162 µM) | relative viability (Masitinib + Vorinostat; first compound 0.1 µM) | relative viability (Masitinib + Vorinostat; first compound 0.3162 µM) | relative viability (Masitinib + Vorinostat; first compound 1 µM) | relative viability (Masitinib + Pictilisib; first compound 0.01 µM) | relative viability (Masitinib + Pictilisib; first compound 0.03162 µM) | relative viability (Masitinib + Pictilisib; first compound 0.1 µM) | relative viability (Masitinib + Pictilisib; first compound 0.3162 µM) | relative viability (Masitinib + Pictilisib; first compound 1 µM) | relative viability (Masitinib + Trametinib; first compound 0.01 µM) | relative viability (Masitinib + Trametinib; first compound 0.03162 µM) | relative viability (Masitinib + Trametinib; first compound 0.1 µM) | relative viability (Masitinib + Trametinib; first compound 0.3162 µM) | relative viability (Masitinib + Trametinib; first compound 1 µM)
NCI-H3122 | 0.359 | 0.348 | 0.364 | 0.373 | 0.343 | 0.844 | 0.982 | 1.15 | 1.14 | 1.05 | 0.579 | 0.623 | 0.595 | 0.677 | 0.574 | 0.26 | 0.243 | 0.24 | 0.267 | 0.168
PC-3 [JPC-3] | 0.426 | 0.451 | 0.461 | 0.486 | 0.498 | 0.753 | 0.554 | 0.779 | 0.748 | 0.667 | 0.71 | 0.761 | 0.761 | 0.459 | 0.656 | 0.723 | 0.651 | 0.733 | 0.576 | 0.616
PC-14 | 0.47 | 0.457 | 0.601 | 0.521 | 0.502 | 0.716 | 0.79 | 0.767 | 0.691 | 0.865 | 0.603 | 0.613 | 0.77 | 0.747 | 0.657 | 0.774 | 0.634 | 0.909 | 0.729 | 0.821
RERF-LC-KJ | 0.449 | 0.403 | 0.373 | 0.384 | 0.363 | 0.587 | 0.783 | 0.752 | 0.541 | 0.646 | 0.496 | 0.514 | 0.617 | 0.404 | 0.457 | 0.769 | 0.836 | 0.834 | 0.809 | 0.763
SK-LU-1 | 0.452 | 0.471 | – | 0.731 | 0.63 | 0.779 | 0.844 | 0.744 | 0.926 | 0.774 | 0.483 | 0.53 | 0.643 | 0.549 | 0.518 | 0.513 | 0.406 | 0.534 | 0.555 | 0.464
SK-MES-1 | 0.626 | 0.565 | 0.592 | 0.656 | 0.547 | 0.876 | 1.15 | 1.03 | 0.984 | 1.07 | 0.346 | 0.312 | 0.406 | 0.332 | 0.371 | 0.519 | 0.528 | 0.561 | 0.485 | 0.514
SW 1573 | 0.316 | 0.36 | 0.352 | 0.389 | 0.399 | 0.645 | 0.763 | 0.929 | 0.968 | 0.973 | 0.471 | 0.542 | 0.478 | 0.472 | 0.452 | 0.666 | 0.603 | 0.551 | 0.542 | 0.581
UMC-11 | 0.314 | 0.298 | 0.32 | 0.307 | 0.349 | 0.314 | 0.342 | 0.375 | 0.366 | 0.359 | 0.744 | 0.862 | 0.948 | 0.972 | 0.856 | 0.431 | 0.588 | 0.617 | 0.627 | 0.804
